Source: patent US10463660B2, “Benzoic acid, benzoic acid derivatives and heteroaryl carboxylic acid conjugates of oxymorphone, prodrugs, methods of making and use thereof” (KemPharm, Inc., priority 2014, dated 2019)

Legend:
[1] = Intranasal PK profiles of conjugated oxymorphone in rats (released oxymorphone in plasma by LC-MS/MS); type: in vivo; conditions: for %-AUC / %-Cmax / %-Tmax: 0.2 mg/kg oxymorphone equivalent, relative to the OM control; for AUC / Cmax / Tmax: conjugate equivalent to 0.2 mg/kg freebase oxymorphone, released oxymorphone in plasma
Protocol: Intranasal PK curves were determined for a number of prodrug conjugates of the present technology. Rats were intranasally administered at an amount of the conjugate equivalent to 0.2 mg/kg of freebase oxymorphone and the plasma concentrations of released oxymorphone were measured over time by LC-MS/MS.
All PK parameters from the above experiments were calculated and expressed as % change from the control (OM). These PK parameters included maximal plasma concentration (Cmax), area under curve (AUC), and time at which Cmax occurred (Tmax). These parameters are shown in Table 2 relative to the OM controls.

[2] = Oral PK profiles of conjugated oxymorphone in rats (released oxymorphone in plasma by LC-MS/MS); type: in vivo, Sprague-Dawley rats; conditions: for %-AUC / %-Cmax / %-Tmax: 2 mg/kg oxymorphone equivalent, relative to the OM control; for AUC / Cmax / Tmax: conjugate equivalent to 2 mg/kg freebase oxymorphone, released oxymorphone in plasma
Protocol: Oral PK curves were determined for a number of prodrug conjugates of the present technology. Rats were orally administered at an amount of the conjugate equivalent to 2 mg/kg of freebase oxymorphone and the plasma concentrations of released oxymorphone were measured over time by LC-MS/MS.
All PK parameters from the above experiments were calculated and expressed as % change from the control (OM). These PK parameters included maximal plasma concentration (Cmax), area under curve (AUC), and time at which Cmax occurred (Tmax).

COc1ccc(C(=O)OC2=CCC3(O)C4Cc5ccc(OC(=O)c6ccc(OC)cc6)c6c5C3(CCN4C)C2O6)cc1 (stereo not drawn) [3,6-(4-MeO-Bz)2-OM]
%-AUC [1]: 30% | %-Cmax [1]: 9% | %-Tmax [1]: 167% | AUC [1]: 24.6 ng·h/mL | Cmax [1]: 33.5 ng/mL | Tmax [1]: 8.4 min | %-AUC [2]: 110% | %-Cmax [2]: 121% | %-Tmax [2]: 35% | AUC [2]: 26.0 ng·h/mL | Cmax [2]: 10.6 ng/mL | Tmax [2]: 15 min

CN1CC[C@]23c4c5ccc(OC(=O)/C=C/c6ccccc6)c4O[C@H]2C(OC(=O)/C=C/c2ccccc2)=CC[C@@]3(O)[C@H]1C5 [3,6-(Cinnamate)2-OM]
%-AUC [2]: 38% | %-Cmax [2]: 43% | %-Tmax [2]: 50% | AUC [2]: 14.5 ng·h/mL | Cmax [2]: 8.7 ng/mL | Tmax [2]: 45 min

CC(=O)Oc1ccccc1C(=O)Oc1ccc2c3c1OC1C(=O)CCC4(O)C(C2)N(C)CCC314 (stereo not drawn) [3-(2-AcO-Bz)-OM]
%-AUC [2]: 72% | %-Cmax [2]: 78% | %-Tmax [2]: 25% | AUC [2]: 22.5 ng·h/mL | Cmax [2]: 15.8 ng/mL | Tmax [2]: 15 min

CN1CC[C@]23c4c5ccc(OC(=O)c6ccccc6O)c4O[C@H]2C(=O)CC[C@@]3(O)[C@H]1C5 [3-(2-OH-Bz)-OM]
%-AUC [1]: 66% | %-Cmax [1]: 55% | %-Tmax [1]: 100% | AUC [1]: 65.9 ng·h/mL | Cmax [1]: 276.1 ng/mL | Tmax [1]: 4.8 min | %-AUC [2]: 72% | %-Cmax [2]: 74% | %-Tmax [2]: 62% | AUC [2]: 31.3 ng·h/mL | Cmax [2]: 17.5 ng/mL | Tmax [2]: 39 min

COc1ccc(C(=O)Oc2ccc3c4c2O[C@H]2C(=O)CC[C@@]5(O)[C@@H](C3)N(C)CC[C@]425)cc1 [3-(4-MeO-Bz)-OM]
%-AUC [1]: 76% | %-Cmax [1]: 61% | %-Tmax [1]: 100% | AUC [1]: 63.1 ng·h/mL | Cmax [1]: 244.9 ng/mL | Tmax [1]: 4.8 min | %-AUC [2]: 100% | %-Cmax [2]: 99% | %-Tmax [2]: 100% | AUC [2]: 43.2 ng·h/mL | Cmax [2]: 23.6 ng/mL | Tmax [2]: 63 min

CN1CC[C@]23c4c5ccc(OC(=O)/C=C/c6ccccc6)c4O[C@H]2C(=O)CC[C@@]3(O)[C@H]1C5 [3-Cinnamate-OM]
%-AUC [2]: 190% | %-Cmax [2]: 236% | %-Tmax [2]: 136% | AUC [2]: 36.8 ng·h/mL | Cmax [2]: 19.0 ng/mL | Tmax [2]: 90 min

CN1CC[C@]23c4c5ccc(OC(=O)c6cc(-c7ccc(F)cc7F)ccc6O)c4O[C@H]2C(=O)CC[C@@]3(O)[C@H]1C5 [3-Diflunisal-OM]
%-AUC [1]: 131% | %-Cmax [1]: 41% | %-Tmax [1]: 200% | AUC [1]: 108.2 ng·h/mL | Cmax [1]: 151.5 ng/mL | Tmax [1]: 10.2 min | %-AUC [2]: 85% | %-Cmax [2]: 52% | %-Tmax [2]: 340% | AUC [2]: 17.6 ng·h/mL | Cmax [2]: 13.2 ng/mL | Tmax [2]: 51 min

CC(C(=O)Oc1ccc2c3c1O[C@H]1C(=O)CC[C@@]4(O)[C@@H](C2)N(C)CC[C@]314)c1cccc(Oc2ccccc2)c1 (stereo partly drawn) [3-Fenoprofen-OM]
%-AUC [2]: 59% | %-Cmax [2]: 52% | %-Tmax [2]: 100% | AUC [2]: 14.8 ng·h/mL | Cmax [2]: 9.6 ng/mL | Tmax [2]: 36 min

CC(C(=O)Oc1ccc2c3c1O[C@H]1C(=O)CC[C@@]4(O)[C@@H](C2)N(C)CC[C@]314)c1cccc(C(=O)c2ccccc2)c1 (stereo partly drawn) [3-Ketoprofen-OM]
%-AUC [2]: 159% | %-Cmax [2]: 150% | %-Tmax [2]: 30% | AUC [2]: 49.7 ng·h/mL | Cmax [2]: 30.3 ng/mL | Tmax [2]: 18 min

COc1cc(C(=O)Oc2ccc3c4c2O[C@H]2C(=O)CC[C@@]5(O)[C@@H](C3)N(C)CC[C@]425)ccc1O [3-Vanillate-OM]
%-AUC [2]: 92% | %-Cmax [2]: 97% | %-Tmax [2]: 46% | AUC [2]: 14.7 ng·h/mL | Cmax [2]: 7.5 ng/mL | Tmax [2]: 48 min

CN1CC[C@]23c4c5ccc(O)c4O[C@H]2C(OC(=O)c2ccccc2O)=CC[C@@]3(O)[C@H]1C5 [6-(2-OH-Bz)-OM]
%-AUC [2]: 134% | %-Cmax [2]: 157% | %-Tmax [2]: 60% | AUC [2]: 50.6 ng·h/mL | Cmax [2]: 31.6 ng/mL | Tmax [2]: 45 min

CN1CC[C@]23c4c5ccc(O)c4O[C@H]2C(OC(=O)c2cccc(N)c2)=CC[C@@]3(O)[C@H]1C5 [6-(3-ABz)-OM]
%-AUC [2]: 46% | %-Cmax [2]: 32% | %-Tmax [2]: 276% | AUC [2]: 16.7 ng·h/mL | Cmax [2]: 6.2 ng/mL | Tmax [2]: 114 min

COc1ccc(C(=O)OC2=CC[C@@]3(O)[C@H]4Cc5ccc(O)c6c5[C@@]3(CCN4C)[C@H]2O6)cc1 [6-(4-MeO-Bz)-OM]
%-AUC [2]: 69% | %-Cmax [2]: 90% | %-Tmax [2]: 22% | AUC [2]: 12.2 ng·h/mL | Cmax [2]: 8.6 ng/mL | Tmax [2]: 15 min

CN1CC[C@]23c4c5ccc(O)c4O[C@H]2C(OC(=O)/C=C/c2ccccc2)=CC[C@@]3(O)[C@H]1C5 [6-Cinnamate-OM]
%-AUC [2]: 77% | %-Cmax [2]: 59% | %-Tmax [2]: 225% | AUC [2]: 28.0 ng·h/mL | Cmax [2]: 11.4 ng/mL | Tmax [2]: 93 min

CN1CC[C@]23c4c5ccc(O)c4O[C@H]2C(OC(=O)c2cc(-c4ccc(F)cc4F)ccc2O)=CC[C@@]3(O)[C@H]1C5 [6-Diflunisal-OM]
%-AUC [1]: 25% | %-Cmax [1]: 11% | %-Tmax [1]: 100% | AUC [1]: 20.7 ng·h/mL | Cmax [1]: 39.1 ng/mL | Tmax [1]: 4.8 min | AUC [2]: 67.2 ng·h/mL | Cmax [2]: 50.6 ng/mL | Tmax [2]: 15 min

CC(C(=O)OC1=CCC2(O)C3Cc4ccc(O)c5c4C2(CCN3C)C1O5)c1cccc(C(=O)c2ccccc2)c1 (stereo not drawn) [6-Ketoprofen-OM]
%-AUC [2]: 99% | %-Cmax [2]: 47% | %-Tmax [2]: 260% | AUC [2]: 20.6 ng·h/mL | Cmax [2]: 11.8 ng/mL | Tmax [2]: 39 min

COc1cc(C(=O)OC2=CC[C@@]3(O)[C@H]4Cc5ccc(O)c6c5[C@@]3(CCN4C)[C@H]2O6)ccc1O [6-Vanillate-OM]
%-AUC [2]: 56% | %-Cmax [2]: 65% | %-Tmax [2]: 97% | AUC [2]: 8.9 ng·h/mL | Cmax [2]: 5.0 ng/mL | Tmax [2]: 102 min

CN1CC[C@]23c4c5ccc(O)c4O[C@H]2C(OC(=O)c2ccccc2)=CC[C@@]3(O)[C@H]1C5 [Conjugate 6-Bz-OM]
%-AUC [1]: 42% | %-Cmax [1]: 36% | %-Tmax [1]: 100% | AUC [1]: 35.1 ng·h/mL | Cmax [1]: 145.2 ng/mL | Tmax [1]: 4.8 min | %-AUC [2]: 78% | %-Cmax [2]: 67% | %-Tmax [2]: 129% | AUC [2]: 15.0 ng·h/mL | Cmax [2]: 6.4 ng/mL | Tmax [2]: 108 min
